Our source for the IC50 values is US6897222B2, “Pyrido[2,1-a]isoquinoline derivatives” (Hoffmann-La Roche Inc., priority 2001, dated 2005).

SMILES strings stand for the structures.

The target in this assay is T1, human DPP-IV (Homo sapiens, UniProt P27487).
T1 construct: made in house; host or cells: Pichia pastoris
T1 sequence (P27487 31-766): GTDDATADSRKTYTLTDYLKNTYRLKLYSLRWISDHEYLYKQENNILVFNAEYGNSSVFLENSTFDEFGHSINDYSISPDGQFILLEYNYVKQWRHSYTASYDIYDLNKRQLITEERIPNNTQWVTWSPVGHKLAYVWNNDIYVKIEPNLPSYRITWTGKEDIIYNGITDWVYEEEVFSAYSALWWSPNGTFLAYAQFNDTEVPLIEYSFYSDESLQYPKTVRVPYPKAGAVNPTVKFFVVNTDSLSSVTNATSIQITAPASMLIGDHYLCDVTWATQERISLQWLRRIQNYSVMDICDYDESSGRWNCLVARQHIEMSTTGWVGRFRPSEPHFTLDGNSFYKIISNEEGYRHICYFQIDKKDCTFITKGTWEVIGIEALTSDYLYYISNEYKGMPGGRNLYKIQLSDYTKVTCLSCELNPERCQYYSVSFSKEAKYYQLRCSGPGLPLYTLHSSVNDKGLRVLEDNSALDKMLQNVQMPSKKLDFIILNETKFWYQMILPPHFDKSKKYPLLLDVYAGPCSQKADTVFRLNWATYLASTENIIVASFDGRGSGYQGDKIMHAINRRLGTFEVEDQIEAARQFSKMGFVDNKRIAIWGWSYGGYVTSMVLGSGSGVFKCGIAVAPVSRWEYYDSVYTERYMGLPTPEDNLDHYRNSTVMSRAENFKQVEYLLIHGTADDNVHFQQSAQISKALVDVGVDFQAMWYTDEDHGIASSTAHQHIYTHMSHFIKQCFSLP
Kind of assay: DPP-IV activity assay (fluorogenic or colorimetric), IC50 determination. In kind it is biochemical. The note with it: natural human DPP-IV from plasma pool or recombinant human DPP-IV; substrate 50 μM (fluorogenic) or 200 μM (colorimetric); 37° C., pH 7.8. As to the method: Activity of DPP-IV inhibitors are tested with natural human DPP-IV derived from a human plasma pool or with recombinant human DPP-IV. Human citrate plasma from different donors is pooled, filtered through a 0.2 micron membrane under sterile conditions and aliquots of 1 ml are shock frozen and stored at −120° C. until used. In the colorimetric DPP-IV assay 5 to 10 μl human plasma and in the fluorometric assay 1.0 μl of human plasma in a total assay volume of 100 μl is used as an enzyme source. […] Human DPP-IV is expressed and purified from the culture medium using conventional column chromatography including size exclusion and anion and cation chromatography. […] In the colorimetric DPP-IV assay 20 ng rec.-h DPP-IV and in the fluorometric assay 2 ng rec-h DPP-IV in a total assay volume of 100 μl is used as an enzyme source.
A 20 mM stock solution in 10% DMF/H2O is stored at −20° C. until use.
In the colorimetric assay H-Ala-Pro-pNA. […] A 10 mM stock solution in 10% MeOH/H2O is stored at −20° C. until use.
Initial rate constants are calculated by best fit linear regression.
DPP-IV activity assays are performed in 96 well plates at 37° C. in a total assay volume of 100 μl. The assay buffer consists of 50 mM Tris/HCl pH 7.8 containing 0.1 mg/ml BSA and 100 mM NaCl. Test compounds are solved in 100% DMSO, diluted to the desired concentration in 10% DMSO/H2O. The final DMSO concentration in the assay is 1% (v/v).
Compounds are with (10 minutes at 37° C.) and without preincubation with the enzyme. Enzyme reactions are started with substrate application followed by immediate mixing.
Kinetic parameters of the enzyme reaction are calculated at at least 5 different substrate concentrations and at least 5 different test compound concentrations.
As for `CCCCC1CN2C(CC1N)c1cc(OC)c(OC)cc1C1CCCCC12` (racemic) [Example 36, rac-7β-Butyl-11,12-dimethoxy-2,3,4,4a,6,7,8,9,9a,13bβ-decahydro-1H-pyrido[1,2-f]phenanthridin-8β-ylamine chlorohydrate (1:2)], the IC50 came out at 160 nM.
Next, `CCCC[C@@H]1CN2CCc3cc(O)c(OC)cc3[C@H]2C[C@H]1N` (racemic) [Example 39, rac-2α-Amino-3β-butyl-10-methoxy-1,3,4,6,7,11bβ-hexahydro-2H-pyrido[2,1-a]isoquinolin-9-ol chlorohydrate (1:2)]: 620 nM; `COc1cc2c(cc1OC)C1CC(N)C(CCC(C)C)CN1CC2` (racemic) [Example 5, rac-9,10-Dimethoxy-3β-(3-methyl-butyl)-1,3,4,6,7,11bβ-hexahydro-2H-pyrido[2,1-a]isoquinolin-2α-ylamine]: 570 nM; `CCCCC1CN2CCc3cc(O)c(OC)cc3C2CC1N` (racemic) [Example 43b, rac-2α-amino-3β-butyl-10-methoxy-1,3,4,6,7,11bβ-hexahydro-2H-pyrido[2,1-a]isoquinolin-9-ol]: 340 nM.
Next, `CCCCC1CN2C(CC1N)c1cc(OC)c(OC)cc1C1CCCCC12` (mixture of isomers) [Example 17, rac-7β-Butyl-11,12-dimethoxy-2,3,4,4a,6,7,8,9,9a,13bβ-decahydro-1H-pyrido[1,2-f]phenanthridin-8β-ylamine]: 140 nM.

The term IC50 denotes the point on the concentration scale where inhibition reaches its midpoint.
